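Growth conditions: 96-well plates. Treatment: test compound, 48 hours, 5 concentrations. Analysis: linear interpolation between bracketing concentrations; unreached endpoints set to highest concentration. GI50 = concentration required for 50% inhibition of growth.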 Activity calls are given as the source filed them. No stated cut-off is given here; in the data, active = GI50 up to about 1.1 µM and inactive = higher.
Assays:
Assay in all cases: NCI-60 cell line screen, 48 h
[1] = tested on: U-251
[2] = tested on: NCI-H23
[3] = tested on: TK-10
[4] = tested on: SNB-19
[5] = tested on: HL-60
[6] = tested on: Hs-578T
[7] = tested on: A549
[8] = tested on: T47D
[9] = tested on: SN12C
[10] = tested on: SF-295
[11] = tested on: UACC-62
[12] = tested on: KM12
[13] = tested on: HCT-116
[14] = tested on: MDA-MB-435
[15] = tested on: HCT-15
[16] = tested on: SF-539
[17] = tested on: NCI/ADR-RES

Compound | GI50 [1] | GI50 [2] | GI50 [3] | GI50 [4] | GI50 [5] | GI50 [6] | GI50 [7] | GI50 [8] | GI50 [9] | GI50 [10] | GI50 [11] | GI50 [12] | GI50 [13] | GI50 [14] | GI50 [15] [µM] | GI50 [16] | GI50 [17]
O=C1C(NCCN2CCOCC2)=C(Cl)C(=O)c2ncccc21 | 0.849 µM (active) | 0.556 µM (active) | 1.45 µM (inactive) | 1.42 µM (inactive) | 0.0249 µM (active) | 1.21 µM (inactive) | 1.55 µM (inactive) | 1.39 µM (inactive) | 1.36 µM (inactive) | 1.4 µM (inactive) | 0.618 µM (active) | 1.34 µM (inactive) | 0.348 µM (active) | 0.182 µM (active) | 0.339 | 1.18 µM (inactive) | 
C=CCOC(=O)N1c2ccc(O[Si](C)(C)C(C)(C)C)cc2[C@@]23O[C@@]24[C@@H]1C#C/C=C\C#C[C@]3(O)C(OC)(OC)C[C@@H]4C | 18.6 µM (inactive) | 16.3 µM (inactive) | > 30.5 µM (inactive) | > 74.6 µM (inactive) |  | 37.8 µM (inactive) | 20 µM (inactive) | 25.3 µM (inactive) | > 84.7 µM (inactive) | > 34.1 µM (inactive) | 10.8 µM (inactive) | > 100 µM (inactive) | 8.38 µM (inactive) | > 85.1 µM (inactive) | > 100 | > 29.2 µM (inactive) | 41.6 µM (inactive)
S=C(N/N=C\C(=N/NC(=S)N1CCCCC1)c1ccccc1)N1CCCCC1 | 1.84 µM (inactive) | 2.42 µM (inactive) | 1.8 µM (inactive) | 1.9 µM (inactive) |  | 1.82 µM (inactive) | 2.28 µM (inactive) | 5.4 µM (inactive) | 1.95 µM (inactive) | 2.01 µM (inactive) | 1.99 µM (inactive) | 2.03 µM (inactive) | 2.3 µM (inactive) | 1.91 µM (inactive) | 2.4 | 2.36 µM (inactive) | 2.31 µM (inactive)
COc1ccc(-c2c3c(n(C4OC(COC(C)=O)C(OC(C)=O)C(OC(C)=O)C4OC(C)=O)c(=S)c2C#N)CCC3)cc1 (stereo not given) | > 100 µM (inactive) | > 100 µM (inactive) | > 100 µM (inactive) | > 100 µM (inactive) | > 100 µM (inactive) | > 100 µM (inactive) | > 100 µM (inactive) |  | 71.4 µM (inactive) | > 100 µM (inactive) | > 100 µM (inactive) | > 100 µM (inactive) | > 100 µM (inactive) | > 100 µM (inactive) | > 100 | > 100 µM (inactive) | > 100 µM (inactive)
O=C(Nc1cccc(C(F)(F)F)c1)O/N=C(/Cl)CCl | 39.5 µM (inactive) | 47.3 µM (inactive) | > 100 µM (inactive) | > 100 µM (inactive) | 16.8 µM (inactive) | > 100 µM (inactive) | > 100 µM (inactive) | 53.5 µM (inactive) | 56 µM (inactive) | 49.5 µM (inactive) |  | > 100 µM (inactive) | 55.7 µM (inactive) |  | 46.3 | > 100 µM (inactive) | > 100 µM (inactive)
COC(=O)C1(c2cc3ccccc3n2S(=O)(=O)c2ccccc2)CC2C=CC1NC2 (stereo not given) | 1.43 µM (inactive) | 2.18 µM (inactive) | 2.28 µM (inactive) | 2.2 µM (inactive) | 1.94 µM (inactive) |  | 2.96 µM (inactive) | 3.24 µM (inactive) | 2.08 µM (inactive) | 2.91 µM (inactive) | 1.62 µM (inactive) | 2.47 µM (inactive) | 2.23 µM (inactive) | 1.63 µM (inactive) | 1.75 | 1.95 µM (inactive) | 2.42 µM (inactive)
CN1CNc2nc(N)n(C)c(=O)c2C1 | > 10 µM (inactive) | > 10 µM (inactive) | > 10 µM (inactive) | > 10 µM (inactive) | > 10 µM (inactive) |  | > 10 µM (inactive) |  | > 10 µM (inactive) | > 10 µM (inactive) | > 10 µM (inactive) | > 10 µM (inactive) |  | > 10 µM (inactive) | > 10 | > 10 µM (inactive) | > 10 µM (inactive)
Nc1nn2c(=O)c3ccccc3nc2s1 | > 100 µM (inactive) | 28.4 µM (inactive) | > 100 µM (inactive) | > 100 µM (inactive) |  | > 100 µM (inactive) | > 100 µM (inactive) | 87.3 µM (inactive) | 65.6 µM (inactive) | > 100 µM (inactive) | > 100 µM (inactive) | > 100 µM (inactive) | 57.3 µM (inactive) | > 100 µM (inactive) | 44.9 | 43.9 µM (inactive) | > 100 µM (inactive)
COC1OC(C(=O)O)C2OC(C)(C)OC12 (stereo not given) | > 100 µM (inactive) | > 100 µM (inactive) | > 100 µM (inactive) | > 100 µM (inactive) |  |  | > 100 µM (inactive) |  | > 100 µM (inactive) | > 100 µM (inactive) | > 100 µM (inactive) | > 100 µM (inactive) | > 100 µM (inactive) | > 100 µM (inactive) | > 100 | > 100 µM (inactive) | > 100 µM (inactive)
N#CCc1nc(C#N)c(N)o1 | > 100 µM (inactive) | > 100 µM (inactive) | > 100 µM (inactive) |  |  | > 100 µM (inactive) | > 100 µM (inactive) | > 100 µM (inactive) | > 100 µM (inactive) | > 100 µM (inactive) | > 100 µM (inactive) | > 100 µM (inactive) | > 100 µM (inactive) | > 100 µM (inactive) | > 100 | > 100 µM (inactive) | > 100 µM (inactive)
CN(C)c1ccc(/C=C2\N=C(NNc3ccccc3)NC2=O)cc1 | 14.3 µM (inactive) | 20 µM (inactive) | 20.8 µM (inactive) | 35.6 µM (inactive) |  | 35 µM (inactive) | 20.4 µM (inactive) | 11.7 µM (inactive) | 17.7 µM (inactive) | 21.5 µM (inactive) | 28.8 µM (inactive) | 13.2 µM (inactive) | 22.9 µM (inactive) | 21.5 µM (inactive) | 22 | 19.5 µM (inactive) | 19.8 µM (inactive)
Cc1c(O)c(OC2OC(CO)C(O)C(O)C2O)cc2c1C=C[C@@H]1[C@@]2(C)C(=O)C[C@]2(C)[C@@H]([C@@](C)(O)C(=O)CCC(C)(C)O)[C@H](O)C[C@@]12C (stereo not given in full) | 20.7 µM (inactive) | 17.1 µM (inactive) | 18.1 µM (inactive) | 23.2 µM (inactive) | 41.5 µM (inactive) |  | 26.7 µM (inactive) | 18.7 µM (inactive) | 19.8 µM (inactive) | 17.1 µM (inactive) | 18.1 µM (inactive) | 25.4 µM (inactive) | 18.9 µM (inactive) | 27.1 µM (inactive) | 25.9 | 18.1 µM (inactive) | 25.5 µM (inactive)
Cc1ccc(/N=C2\SC(=S)N(CCC[N+](C)(C)C)\C2=N/c2ccc(C)cc2)cc1 | 11.3 µM (inactive) | 14.5 µM (inactive) | 18.9 µM (inactive) | 8.24 µM (inactive) | 1.99 µM (inactive) | 4.08 µM (inactive) | 15.6 µM (inactive) | 2.29 µM (inactive) | 11.2 µM (inactive) |  | 10 µM (inactive) | 24.4 µM (inactive) | 11 µM (inactive) |  | 13.8 |  | 
O=c1[nH]c(=S)c2cc3c(=S)[nH]c(=O)n(CCC(c4ccccc4)(c4ccccc4)c4ccccc4)c3nc2n1CCC(c1ccccc1)(c1ccccc1)c1ccccc1 | > 100 µM (inactive) | > 100 µM (inactive) | > 100 µM (inactive) | > 100 µM (inactive) |  |  | > 100 µM (inactive) | > 100 µM (inactive) | > 100 µM (inactive) | > 100 µM (inactive) | > 100 µM (inactive) | > 100 µM (inactive) | > 100 µM (inactive) | > 100 µM (inactive) | > 100 |  | > 100 µM (inactive)
CC1=Nc2c(C#N)ncn2N=C(C)C1 | > 100 µM (inactive) | > 100 µM (inactive) | > 100 µM (inactive) |  | > 100 µM (inactive) | > 100 µM (inactive) | > 100 µM (inactive) |  | > 100 µM (inactive) | > 100 µM (inactive) | > 100 µM (inactive) | > 100 µM (inactive) | > 100 µM (inactive) | > 100 µM (inactive) |  | > 100 µM (inactive) | > 100 µM (inactive)
COc1ccccc1N1C(=O)/C(=C\c2cccc(Oc3ccccc3)c2)S(=O)(=O)C1c1ccccc1 (stereo not given) | 53.6 µM (inactive) | 19 µM (inactive) | 58.7 µM (inactive) | 50 µM (inactive) |  |  | > 100 µM (inactive) | 22.3 µM (inactive) | > 100 µM (inactive) | 81.8 µM (inactive) | 17.8 µM (inactive) | 28.2 µM (inactive) | 23.8 µM (inactive) | 30.8 µM (inactive) | 32.4 |  | 2.92 µM (inactive)
CC1=C(C)C(=O)OC(C(C)(O)C2(O)CC3OC34C3CC(O)C56OC5C=CC(=O)C6(C)C3CCC42C)C1 (stereo not given) | 1.76 µM (inactive) | 1.91 µM (inactive) | 1.5 µM (inactive) | 4.12 µM (inactive) | 0.264 µM (active) | 1.77 µM (inactive) | 3.33 µM (inactive) | 2.99 µM (inactive) | 2.82 µM (inactive) | 3.48 µM (inactive) | 0.617 µM (active) | 2.16 µM (inactive) | 1.38 µM (inactive) | 1.15 µM (inactive) | 0.791 | 2 µM (inactive) | 
CCc1cc2c(oc3c4ccccc4ccc23)c(=O)[nH]1 | > 10 µM (inactive) | > 10 µM (inactive) | > 10 µM (inactive) | > 10 µM (inactive) | > 10 µM (inactive) | > 10 µM (inactive) | > 10 µM (inactive) |  |  | > 10 µM (inactive) | > 10 µM (inactive) | > 10 µM (inactive) | > 10 µM (inactive) | > 10 µM (inactive) |  | > 10 µM (inactive) | 

— ChEMBL document CHEMBL1201862, “PubChem BioAssay data set” (2004)
